Our source for the IC50 and z-score values is PubChem BioAssay AID1259348 (Broad Institute, 2017).

The term IC50 denotes the concentration at which inhibition is half-maximal.

The target of the experiment is Insulin-degrading enzyme (Homo sapiens) (UniProt P14735). Briefly: IDE catalytic activity blockers, fluorogenic substrate – biochemical, kinetic mode, counter-screen for IDE exo-site inhibitor project, dose response (AID 1259348).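 On z-score: purified IDE bound to fluorescein-labelled 6b probe FL-6b at the exo-site; test concentration not given here; probe displacement lowers polarization so hits show a drop in FP signal.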 The note with it: purified human IDE, fluorogenic decapeptide proteolysis. Background: Counterscreens check selectivity or assay interference.
Insulin-degrading enzyme (Homo sapiens), sequence (P14735 42-1019 limits assumed): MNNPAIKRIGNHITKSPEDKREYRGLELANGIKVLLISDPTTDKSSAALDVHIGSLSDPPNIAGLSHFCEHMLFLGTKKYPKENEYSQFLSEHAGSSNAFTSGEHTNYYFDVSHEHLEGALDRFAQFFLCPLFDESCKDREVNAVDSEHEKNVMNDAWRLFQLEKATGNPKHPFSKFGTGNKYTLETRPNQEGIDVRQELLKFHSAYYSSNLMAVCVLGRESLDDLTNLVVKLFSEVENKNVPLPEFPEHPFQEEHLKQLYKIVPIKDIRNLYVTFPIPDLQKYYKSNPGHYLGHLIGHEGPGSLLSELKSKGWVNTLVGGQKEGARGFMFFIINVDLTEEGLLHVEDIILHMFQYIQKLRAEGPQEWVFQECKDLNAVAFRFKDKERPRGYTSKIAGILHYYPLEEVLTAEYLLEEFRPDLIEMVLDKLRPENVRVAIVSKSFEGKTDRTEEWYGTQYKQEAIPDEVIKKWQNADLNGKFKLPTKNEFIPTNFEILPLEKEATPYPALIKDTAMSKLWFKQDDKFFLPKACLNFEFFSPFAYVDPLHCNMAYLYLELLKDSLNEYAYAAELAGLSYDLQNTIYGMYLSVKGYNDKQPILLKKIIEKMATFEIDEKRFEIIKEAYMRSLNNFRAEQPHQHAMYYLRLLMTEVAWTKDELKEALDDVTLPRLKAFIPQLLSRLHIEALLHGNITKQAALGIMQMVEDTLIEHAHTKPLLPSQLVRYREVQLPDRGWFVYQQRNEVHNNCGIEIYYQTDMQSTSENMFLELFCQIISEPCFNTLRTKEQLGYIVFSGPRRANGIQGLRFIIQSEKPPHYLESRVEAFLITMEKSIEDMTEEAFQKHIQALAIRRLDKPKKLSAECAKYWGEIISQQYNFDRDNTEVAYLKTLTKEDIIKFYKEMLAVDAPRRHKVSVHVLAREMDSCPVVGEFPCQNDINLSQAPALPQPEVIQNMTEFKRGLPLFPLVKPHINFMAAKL

`CCCNC(=O)N1CC(=O)N2[C@@H](CO)[C@@H](c3ccc(C#Cc4cccc(OC)c4)cc3)[C@@H]2C1`: the IC50 was 11 µM. The z-score (measured here: primary FP probe displacement screen, stronger effect = lower value) is -1.33.
